Entries after “also recorded” stand apart in the source; their conditions may differ.
How the values were obtained:
BRD4-1 = target: T1, BRD4-1 (Homo sapiens, UniProt O60885); test: AlphaScreen histone peptide displacement assay, BRD4-1; type: binding
T1 construct: evaluated against both domains of BRD4, BRD4-1 and BRD4-2; Reaction Biology
Source text: (§1) Experiments performed on HeLa cells.
(§2) FIG. 4: Biological evaluation of Tz-thalidomide against both domains of BRD4, BRD4-1 and BRD4-2. Biological evaluation of Tz-thalidomide (n=2) by AlphaScreen (performed by Reaction Biology).

BRD4-2 = target: T2, BRD4-2 (Homo sapiens, UniProt O60885); test: AlphaScreen histone peptide displacement assay, BRD4-2; type: binding
T2 construct: evaluated against both domains of BRD4, BRD4-1 and BRD4-2; Reaction Biology
Source text: as §1, §2

BRD4 = target: T3, BRD4 (Homo sapiens, UniProt O60885); test: BRD4 degradation by self-assembling CLIPTACs in HeLa cells (immunoblot); type: cell-based; details: for BRD4 level, time course: JQ1-TCO 10 μM then Tz-thalidomide 10 μM
T3 construct: host or cells: HeLa
Method: BRD4 presence was assessed by SDS-PAGE followed by Western Blot using a specific BRD4 antibody.
(§3) HeLa cells (purchased from ATCC) were cultured in Eagle's Minimum Essential Medium (EMEM) supplemented with 10% FBS (Gibco, Life Technologies), 0.1% NEAA (Non-Essential Amino Acid, Gibco, Life Technologies) and 2 mM glutamine and were grown at 37° C. with 5% CO2. A375 and HCT116 cells (purchased from ATCC) were cultured in Dulbecco's Modified Eagle Medium (DMEM) supplemented with 10% FBS (Gibco, Life Technologies) and were grown at 37° C. with 5% CO2.
(§4) The medium was removed and the cells were washed with PBS (2×). A375 and HCT116 cells were lysed with TG Lysis buffer (150 μL per well) and kept on ice for 20 min. The cell lysates were centrifuged at 14000 rpm for 10 min at 4° C. and the protein concentration was determined by a Pierce™ BCA Protein Assay Kit. Samples were normalised, separated on 4-12% NuPAGE gels (Life Technologies) and transferred onto a nitrocellulose membrane (Novex). The membrane was blocked in blocking buffer (Odyssey) at r.t. for 1 hour and subjected to immunodetection using a total ERK1/2 primary antibody (p44/42 MAPK ERK1/2, Cell Signaling Technologies®, 1:1000) and anti-actin antibody (Abcam ab6276, 1:10000) in blocking buffer, at r.t. for 1 hour. After washing 3× with a Tris-buffered saline (TBS) with 0.1% Tween-20 solution (TBST), the membrane was incubated with fluorescently labelled secondary antibody (IRDye800CW Donkey Anti-Rabbit, 1:10 000 and IRDye680RD Donkey Anti-Mouse, 1:10 000) for 1 hour at r.t. in the dark. After washing 2× with a TBS solution, the membrane was imaged on an Li-Cor Biosciences Odyssey system in the 800 nm and 700 nm channels.
The same procedure was followed with HeLa cells using RIPA Lysis buffer (150 μL per well) and 5% non-fat milk in TBST as blocking buffer. Immunodetection was performed using an anti-BRD4 antibody (Bethyl Laboratories, A301:985A100, 1:1000) and anti-actin antibody (Abcam ab6276, 1:10000) in 5% non-fat milk in TBST, at 4° C. for 48 hours.
(§5) HeLa, A375 and HCT116 cells were seeded in 6-well plates at 1.5.10^5 cells/mL with 2 mL/well and allowed to attach overnight before being incubated with the appropriate compounds. TCO-ligand was added from a 1000× stock in DMSO-d6 (2 μL) to the plates. The cells were incubated at 37° C. in an atmosphere of 5% CO2 and air for 18 hours. Tz-Thalidomide was added from a 1000× stock in DMSO-d6 (2 μL) to the plates. The cells were incubated at 37° C. in an atmosphere of 5% CO2 and air for 18 hours.
(§6) When Carfilzomib was used, the compound was added from a 1000× stock in DMSO-d6 (2 μL) 4 hours before the addition of Tz-thalidomide. For control experiments, untagged ligands were added instead of the TCO-compound and methyl-Tz-thalidomide was used instead of Tz-thalidomide. For the time course experiments, the cells were incubated for the indicated time after the addition of Tz-thalidomide and consequently lysed.

ERK1/2 [1] = test: ERK1/2 degradation by self-assembling CLIPTACs in A375 cells (immunoblot); type: cell-based; details: for ERK1/2 degradation, time course: Probe 1 10 μM then Tz-thalidomide 10 μM
Method: (§7) ERK1 and 2 levels were assessed by SDS-PAGE followed by Western Blot using a total ERK1/2 antibody. […] At low concentration (0.1 μM), the level of ERK1/2 was unchanged. […] Quantitation of the signal intensities allowed calculation of a DC50 of 490 nM.
as §3, §4, §5, §6

bromodomain family = test: Thermal shift selectivity across the bromodomain family; type: binding; details: 10 μM, duplicate
Method: Finally, the selectivity profile of JQ1-TCO against the BET family was determined by thermal shift assay. […] (Liu et al. (2012) ChromoHub: a data hub for navigators of chromatin-mediated signalling. Bioinformatics 28: 2205-2206)
(b) Selectivity of JQ1-TCO (10 μM, duplicate, thermal shift) across the bromodomain family. (c) Immunoblot for BRD4 and Actin showing JQ1-TCO concentration dependent downregulation of BRD4 protein levels. HeLa cells were treated with JQ1-TCO for 18 hours followed by treatment with Tz-thalidomide (10 μM) for 18 hours. (d) Immunoblot for BRD4 and Actin showing Tz-thalidomide concentration dependent downregulation of BRD4 protein levels. HeLa cells were treated with JQ1-TCO (10 μM) for 18 hours followed by treatment with Tz-thalidomide for 18 hours. (e) Immunoblot for BRD4 and Actin showing time-dependent downregulation of BRD4 protein levels. HeLa cells were treated with JQ1-TCO (10 μM) for 18 hours followed by treatment with Tz-thalidomide (10 μM) for the indicated time. […] HeLa cells were treated with (−)JQ1-TCO for 18 hours followed by treatment with Tz-thalidomide for 18 hours. […] HeLa cells were treated with JQ1-TCO for 18 hours followed by treatment with Methyl-Tz-thalidomide for 18 hours. […] Experiments performed on HeLa cells.

ERK2 = target: T4, ERK2 (Homo sapiens, UniProt P28482); test: ERK2 degradation by self-assembling CLIPTACs in HCT116 cells (immunoblot); type: cell-based; details: high concentrations of Probe 1 18 h then Tz-thalidomide 10 μM 18 h
T4 construct: host or cells: HCT116
Method: as §7, §3
The medium was removed and the cells were washed with PBS (2×). A375 and HCT116 cells were lysed with TG Lysis buffer (150 μL per well) and kept on ice for 20 min. The cell lysates were centrifuged at 14000 rpm for 10 min at 4° C. and the protein concentration was determined by a Pierce™ BCA Protein Assay Kit. Samples were normalised, separated on 4-12% NuPAGE gels (Life Technologies) and transferred onto a nitrocellulose membrane (Novex). […]

A375 cells = test: Activity in A375 cells (GI50); type: cell-based; details: Homo sapiens, A-375
ERK1/2 [2] = test: ERK1/2 degradation by self-assembling CLIPTACs in A375 cells (immunoblot); type: cell-based
[3] = 4-hour pre-treatment with Carfilzomib (1 μM) in the CLIPTAC experiment

T4 sequence (P28482 whole entry): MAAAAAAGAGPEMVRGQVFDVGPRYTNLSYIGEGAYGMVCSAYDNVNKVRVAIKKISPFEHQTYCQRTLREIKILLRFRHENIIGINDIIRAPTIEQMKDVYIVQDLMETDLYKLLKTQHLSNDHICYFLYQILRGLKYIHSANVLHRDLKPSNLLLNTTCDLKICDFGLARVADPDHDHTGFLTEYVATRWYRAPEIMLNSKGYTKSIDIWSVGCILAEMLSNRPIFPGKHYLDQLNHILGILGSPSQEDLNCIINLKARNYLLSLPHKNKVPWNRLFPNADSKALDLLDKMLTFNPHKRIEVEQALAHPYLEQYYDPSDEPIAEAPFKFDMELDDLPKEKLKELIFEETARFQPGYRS

Cc1sc2c(c1C)C(c1ccc(Cl)cc1)=N[C@H](CC(=O)NCCCNC(=O)OC1CC/C=C/CCC1)c1nnc(C)n1-2 (single isomer, unassigned; (-)) [(−)JQ1-TCO]
IC50 (BRD4-1): 13500 ± 210 nM | IC50 (BRD4-2): 24300 ± 920 nM | BRD4 degradation (BRD4; (−)JQ1-TCO at any concentration tested, then Tz-thalidomide 10 μM): no BRD4 degradation

CC(C)C[C@H](NC(=O)[C@H](CCc1ccccc1)NC(=O)CN1CCOCC1)C(=O)N[C@@H](Cc1ccccc1)C(=O)N[C@@H](CC(C)C)C(=O)[C@@]1(C)CO1 [Carfilzomib, reference compound]
BRD4 level (BRD4; [3]): remained the same as in untreated cells | ERK1/2 degradation (ERK1/2 [1]; [3]): rescued

Cc1sc2c(c1C)C(c1ccc(Cl)cc1)=N[C@@H](CC(=O)NCCCNC(=O)OC1CC/C=C/CCC1)c1nnc(C)n1-2 (stereo partly drawn) [JQ1-TCO, (4E)-Cyclooct-4-en-1-yl N-(3-{2-[(9S)-7-(4-chlorophenyl)-4,5,13-trimethyl-3-thia-1,8,11,12-tetraazatricyclo[8.3.0.0^2,6]trideca-2(6),4,7,10,12-pentaen-9-yl]acetamido}propyl)carbamate]
IC50 (BRD4-1): 16 ± 3 nM | IC50 (BRD4-2): 63 ± 2 nM | Selectivity across the bromodomain family (thermal shift) (bromodomain family): bind selectively to subfamily II | BRD4 level, time course (BRD4; after 16 hours): clearly dropped | BRD4 level, time course (BRD4; after 24 hours): complete degradation | BRD4 level, time course (BRD4; up to 8 hours): unchanged | BRD4 degradation (BRD4; JQ1-TCO 1 and 0.3 μM 18 h, then Tz-thalidomide 10 μM 18 h): partial degradation | BRD4 degradation (BRD4; JQ1-TCO 10 and 3 μM 18 h, then Tz-thalidomide 10 μM 18 h): complete degradation | DC50 (BRD4; JQ1-TCO 18 h followed by fixed Tz-thalidomide (10 μM) 18 h, read-out: 50% degradation concentration (DC50) of BRD4): 420 nM | BRD4 level (BRD4; compound alone): unaffected

C=CC(=O)Nc1ccccc1Nc1nc(Nc2ccnc(C#CCCNC(=O)OC3CC/C=C/CCC3)c2)ncc1Cl (stereo not drawn) [Probe 1, (4E)-Cyclooct-4-en-1-yl N-(4-{4-[(5-chloro-4-{[2-(prop-2-enamido)phenyl]amino}pyrimidin-2-yl)amino]pyridin-2-yl}but-3-yn-1-yl) carbamate]
ERK1/2 level (ERK1/2 [1]; Probe 1 0.1 μM 18 h then Tz-thalidomide 10 μM 18 h): unchanged | ERK1/2 degradation, time course (ERK1/2 [1]; after 8 hours): partially | ERK1/2 degradation, time course (ERK1/2 [1]; after 16 hours): complete | ERK1/2 degradation (ERK1/2 [1]; Probe 1 0.3 and 1 μM 18 h then Tz-thalidomide 10 μM 18 h): Partial degradation | DC50 (ERK1/2 [1]; Probe 1 18 h then Tz-thalidomide 10 μM 18 h): 490 nM | ERK1/2 suppression (ERK1/2 [1]; Probe 1 at higher concentrations 18 h then Tz-thalidomide 10 μM 18 h): complete | ERK1/2 level (ERK1/2 [1]; compound alone): unmodified | ERK2 degradation (ERK2): complete degradation | GI50 (A375 cells): 470 ± 140 nM

Cc1nnc(-c2ccc(CNC(=O)CCCCCOc3cccc4c3C(=O)N(C3CCC(=O)NC3=O)C4=O)cc2)nn1 (stereo not drawn) [Tz-thalidomide, 6-{[2-(2,6-Dioxopiperidin-3-yl)-1,3-dioxo-2,3-dihydro-1H-isoindol-4-yl]oxy}-N-{[4-(6-methyl-1,2,4,5-tetrazin-3-yl)phenyl]methyl}hexanamide]
BRD4 degradation (BRD4; JQ1-TCO 10 μM 18 h, then Tz-thalidomide 10 and 3 μM 18 h): completely degraded | BRD4 degradation (BRD4; JQ1-TCO 10 μM 18 h, then Tz-thalidomide at lower concentrations 18 h): partially | BRD4 level (BRD4; compound alone): unaffected | ERK1/2 level (ERK1/2 [1]; compound alone): unmodified | ERK1/2 degradation profile (ERK1/2 [2]; Probe 1 1 μM 4 hours then Tz-thalidomide 1 μM 18 hours): best degradation profile | ERK1/2 degradation (ERK1/2 [2]; Probe 1 4 h then Tz-thalidomide 0.1 and 0.3 μM): not observed

Cc1nnc(-c2ccc(CNC(=O)CCCCCOc3cccc4c3C(=O)N(C3CCC(=O)N(C)C3=O)C4=O)cc2)nn1 (stereo not drawn) [methyl-Tz-thalidomide, N-{[4-(6-Methyl-1,2,4,5-tetrazin-3-yl)phenyl]methyl}-6-{[2-(1-methyl-2,6-dioxopiperidin-3-yl)-1,3-dioxo-2,3-dihydro-1H-isoindol-4-yl]oxy}hexanamide]
BRD4 level (BRD4; JQ1-TCO 10 μM then methyl-Tz-thalidomide 10 μM): remained unchanged | BRD4 level (BRD4; JQ1-TCO 10 μM then methyl-Tz-thalidomide 10 μM, listed as Methyl-Tz-thalidomide): no BRD4 degradation | ERK1/2 degradation compared with Tz-thalidomide (ERK1/2 [1]; Probe 1 18 h then methyl-Tz-thalidomide 10 μM 18 h): far less effective; also recorded: reduced ERK1/2 degradation
